Laboratory results published in article PMC8416020 (eLife, 2021).
“Also recorded” adds a separate entry of the source. Where no end group is shown, it is not given here.

Key:
[1] = system: GHSR labeled with 7H4MC-ethylglycine at F272^6.44; test: Hydration parameter H from 7H4MC fluorescence emission; type: biochemical, human; conditions: for H parameter: 6.44
From the text: (§1) We then investigated whether the fluorescence properties of 7H4MC-ethylglycine could report on the local hydration features of GHSR. To this end, we analyzed the 7H4MC emission profile for each of the positions considered. An excitation wavelength of 320 nm was systematically used to excite the neutral form of the fluorophore ([Amaro et al., 2015]). The emission spectra were deconvoluted into their separate components using the procedure initially described ([Amaro et al., 2015]). A hydration parameter H was then determined that corresponded to the sum of the contributions of the anionic and tautomer forms. This parameter is an indicator of the extent of hydration at the position considered, as the higher the H parameter the higher local hydration ([Amaro et al., 2015]). A difference in the H parameter inferred for the 7H4MC probe at the different positions of the apo GHSR was observed depending on the position considered (Figure 2—figure supplement 1, 2).
(§2) Figure 2. Local hydration of growth hormone secretagogue receptor (GHSR) as a function of ligands. […] All ligands were used at a 10 µM concentration. In all cases, the data represents the mean value ± SD of three experiments. Statistical analyses are provided in […]—figure supplement 2 and 4. Figure 2—source data 1. H parameter for GHSR and its mutants. Figure 2—figure supplement 1. Emission spectra of L-(7-hydroxycoumarin-4-yl) (7H4MC)-ethylglycine incorporated into isolated growth hormone secretagogue receptor (GHSR). The spectra were recorded in the absence of ligand. The labeling positions are given in a snake-like plot of GHSR ([Shiimura et al., 2020]) (A) (red: positions deleterious to GHSR function; green: positions considered in this work), and then indicated in each panel (B–F). The excitation wavelength was set to 320 nm with an emission intensity recorded between 340 and 600 nm. The gray curve represents the experimental emission spectrum (exp). The red, blue, green, and magenta spectra represent the decomposition of the experimental spectrum into its neutral (N), complexed (C), anionic (A), and tautomeric (T) components, respectively. The orange curve (fit) corresponds to sum of the individual N, C, A, and T curves. Figure 2—figure supplement 1—source data 1. 7-H4MC emission intensity of the apo GHSR mutants. [drawing 7] Figure 2—figure supplement 2. Statistical analysis of the data in Figure 2. […] Data is from Figure 2. […] Structure of the ligands used throughout this work. [drawing 9] Figure 2—figure supplement 4. Statistical analysis of the data in Figure 2. The left panels show the hydration parameter for each of the mutants in the absence or in the presence of ligands. Data are from Figure 2. The right panels show the mean difference between the apo and the ligand-loaded states for each of the mutants with multiplicity-adjusted 95% confidence intervals. [drawing 10] Figure 2—figure supplement 5. Emission spectra of L-(7-hydroxycoumarin-4-yl) (7H4MC)-ethylglycine incorporated at position 5.58 of growth hormone secretagogue receptor (GHSR) in the presence of pharmacologically distinct ligands or phosphatidylinositol-4,5-bisphosphate (PIP2). […] The excitation wavelength was set to 320 nm with an emission intensity recorded between 340 and 600 nm. The black curve represents the experimental emission spectrum (exp). The red one (fit) corresponds to sum of the individual curves after decomposition of the experimental spectrum into its neutral, complexed, anionic, and tautomeric components. Figure 2—figure supplement 5—source data 1. 7-H4MC emission intensity of the GHSR 5.58 mutant in the presence of ligands. [drawing 11] Figure 2—figure supplement 6. […]

[2] = system: GHSR labeled with 7H4MC-ethylglycine at I134^3.43; test: as above; type: biochemical, human; conditions: ligand 10 µM, POPC:POPG nanodiscs, 15°C, ex 320 nm
From the text: as §1, §2

[3] = system: GHSR labeled with 7H4MC-ethylglycine at S315^7.45; test: as above; type: biochemical, human; conditions: ligand 10 µM, POPC:POPG nanodiscs, 15°C, ex 320 nm
From the text: as §1, §2

[4] = system: GHSR labeled with 7H4MC-ethylglycine at V268^6.40; test: as above; type: biochemical, human; conditions: for H parameter: 6.4, ligand 10 µM, POPC:POPG nanodiscs, 15°C, ex 320 nm
From the text: as §1, §2

[5] = system: GHSR labeled with 7H4MC-ethylglycine at Y232^5.58; test: as above; type: biochemical, human; conditions: for H parameter: 5.58
From the text: as §1, §2

7H4MC-labeled GHSR = test: Hydration parameter H from 7H4MC fluorescence emission, several positions together; type: biochemical, human; conditions: positions besides 5.58 and 6.44; saturating ligand (10 µM); vs apo
From the text: as §1
Figure 2. Local hydration of growth hormone secretagogue receptor (GHSR) as a function of ligands. […] All ligands were used at a 10 µM concentration. […] The spectra were recorded in the absence of ligand. […] The excitation wavelength was set to 320 nm with an emission intensity recorded between 340 and 600 nm. […] The excitation wavelength was set to 320 nm with an emission intensity recorded between 340 and 600 nm. […]

[6] = system: GHSR labeled with 7H4MC-ethylglycine at W215^5.41; test: Ligand binding and activation of W215^5.41-labeled receptor; type: biochemical, human; conditions: basal activity markedly decreased
[7] = system: GHSR labeled at I134^3.43, Y232^5.58, V268^6.40, F272^6.44, and S315^7.45; test: Effect of 7H4MC-ethylglycine labeling on ghrelin binding and Gq activation; type: biochemical, human; conditions: positions I134^3.43, Y232^5.58, V268^6.40, F272^6.44, S315^7.45
GHSR F272^6.44 mutants = conditions: ref Valentin-Hansen et al., 2012, cited from earlier work
From the text: (§3) The fluorescent probe was introduced at different positions along GHSR sequence. […] The absence of major effect on substituting F272^6.44 with 7H4MC-ethylglycine on GHSR functioning was puzzling, as mutating this residue to an ala ...

[8] = system: GHSR F272^6.44 to alanine mutant; conditions: mutating F272^6.44 to alanine; ref Valentin-Hansen et al., 2012; cited from earlier work
From the text: as §3

GHSR = conditions: ref M'Kadmi et al., 2015; cited from earlier work
[9] = ligand 10 µM, POPC:POPG nanodiscs, 15°C, ex 320 nm, replicate 1
[10] = ligand 10 µM, POPC:POPG nanodiscs, 15°C, ex 320 nm, replicate 2
[11] = ligand 10 µM, POPC:POPG nanodiscs, 15°C, ex 320 nm, replicate 3
[12] = Figure 5, 10 µM ghrelin, 2.5% PIP2-to-total lipids molar ratio, replicate 1
[13] = Figure 5, 10 µM ghrelin, 2.5% PIP2-to-total lipids molar ratio, replicate 2
[14] = Figure 5, 10 µM ghrelin, 2.5% PIP2-to-total lipids molar ratio, replicate 3
[15] = Figure 5, 10 µM ghrelin, no PIP2, replicate 1
[16] = Figure 5, 10 µM ghrelin, no PIP2, replicate 2
[17] = Figure 5, 10 µM ghrelin, no PIP2, replicate 3
[18] = saturating ligand (10 µM), vs apo

Question: What does the source list for “ghrelin: natural full agonist of GHSR, natural peptide agonist (GSSFLSPEHQRVQQRKESKKPPAKLQPR; not fully specified; ends and bridges not checked; UniProt Q9UBU3 24-51, looked up)”?
Answer: H parameter [1, 9]: 21.07; H parameter [1, 10]: 20.32; H parameter [1, 11]: 19.11; H parameter [1, 12]: 15.658; H parameter [1, 13]: 15.178; H parameter [1, 14]: 13.342; H parameter [1, 15]: 18.095; H parameter [1, 16]: 20.174; H parameter [1, 17]: 21.958; change in the hydration parameter at position 6.44 upon binding [1, 18]: local hydration at position 6.44 decreased; H parameter ([2]; replicate 1): 68.24; H parameter ([2]; replicate 2): 63.92; H parameter ([2]; replicate 3): 67.2; H parameter ([3]; replicate 1): 24.96; H parameter ([3]; replicate 2): 23.88; H parameter ([3]; replicate 3): 21.19; H parameter ([4]; replicate 1): 61.86; H parameter ([4]; replicate 2): 65.16; H parameter ([4]; replicate 3): 62.17; change in the hydration parameter at V268^6.40 [4, 18]: no change was observed for V268^6.40; H parameter [5, 9]: 48.83; H parameter [5, 10]: 49.38; H parameter [5, 11]: 47.22; H parameter [5, 12]: 60.136; H parameter [5, 13]: 58.145; H parameter [5, 14]: 61.325; H parameter [5, 15]: 49.568; H parameter [5, 16]: 47.078; H parameter [5, 17]: 48.124; change in the hydration parameter at position 5.58 upon binding [5, 18]: increase in the hydration parameter at position 5.58; change in the hydration parameter at other positions (7H4MC-labeled GHSR): no relevant change in the hydration parameter; ligand binding and activation of W215^5.41 mutant [6]: could still bind its ligands and be activated by ghrelin; effect of labeling on ghrelin binding and receptor-catalyzed Gq activation [7]: essentially neutral with regard to the ability of the receptor to bind ghrelin and activate Gq; also recorded: affected neither ghrelin binding nor the receptor-catalyzed Gq activation in a relevant manner; ghrelin-induced signaling, F272^6.44 to alanine (GHSR F272^6.44 mutants; mutating F272^6.44 to alanine): reduce ghrelin-induced signaling; basal- and ghrelin-induced GHSR activity, F272^6.44 to tyrosine (GHSR F272^6.44 mutants; replacing phenylalanine with tyrosine, compared with alanine): far lower impact on both basal- and ghrelin-induced GHSR activity; ghrelin binding affinity, F272^6.44 to alanine [8]: without affecting ghrelin binding affinity; pharmacological class (GHSR): natural full agonist
